Data on two molecules can be found in article PMC6467574 (Journal of controlled release : official journal of the …, 2018).

The structures appear in SMILES notation. Read-outs that look alike come from different tables or passages of the source. Where only a bound is given, the exact number is not on record here.

Data set [1] is described as follows: Supersaturation-precipitation. It is filed as physicochemical. The conditions noted are these: for Duration intended degree of drug supersaturation was maintained / Time to drug precipitation: base buffer, preliminary experiments, SSR 5 (CVDL) / 6 (PXM).
A further data set concerns Caco-2 monolayers. To be noted: human, 100 min.
In data set [2] the test system is Caco-2:HT29-MTX-E12 co-culture monolayers. The conditions noted are these: human, 100 min.
Data set [3] in a line: Equilibrium solubility determination in test media. The format is physicochemical. The conditions noted are these: 37 °C; for Equilibrium solubility, effect of addition of mucin: 0.1, 0.2, 0.4 %w/v mucin in 10 mM phosphate buffer pH 6.50 relative to buffer; for Equilibrium solubility, effect of addition of 8 %w/v PIM: 8 %w/v native pig intestinal mucus in 10 mM phosphate buffer pH 6.50 relative to buffer.

Setting [4] is: 1 SSR (multiple of equilibrium solubility).
The mark [5] stands for this setting: 5 SSR (multiple of equilibrium solubility).

On to `COc1ccccc1OCCNCC(O)COc1cccc2[nH]c3ccccc3c12` (stereo not drawn) [CVDL, Carvedilol], for which the “Time drug remained supersaturated” value in data set [1] (SSR = 5, 8 %w/v native PIM, ISE) is reported as 24 h. Also, the “Time to precipitation (Tss), effect of increasing mucin concentration” value in data set [1] (SSR = 5, ISE, up to 0.2 %w/v mucin) is recorded as “significantly increased”. In addition, the “Time within which supersaturated drug precipitated (ISE)” value in data set [1] (SSR = 5, absence of mucus, ISE, average ± SEM, n=3) stood at 19 ± 4 min. Besides, the “Time after which drug precipitated (HPLC)” value in data set [1] (SSR = 5, buffer solution, HPLC analysis) is reported as > 10 min. Further, the “SSR maintained throughout the monitoring period” value was > 3 in data set [1] (SSR = 5 induced, 0.4 %w/v mucin, ISE, 24 h) and > 3 in data set [1] (SSR = 5 induced, 8 %w/v PIM, ISE, 24 h). Further, the “Duration intended degree of drug supersaturation was maintained” value in data set [1] is “at least 5 min”. For the same molecule, the “Time to drug precipitation” value in data set [1] is on record as ≤ 1 h. Further, the “TEER relative to starting value” in the data set with Caco-2 monolayers (setting [4]) was > 80 % starting value; in the data set on Caco-2 monolayers (setting [5]), ~ 60 % starting value; in data set [2] (setting [4]) it was > 80 % starting value; in data set [2] (setting [5]) it was ~ 60 % starting value. Also, in data set [3], the “Equilibrium solubility, effect of addition of mucin” value was “did not change”. In addition, the “Equilibrium solubility, effect of addition of 8 %w/v PIM” value in data set [3] is listed as “significantly increased”.
For `CN1C(C(=O)Nc2ccccn2)=C(O)c2ccccc2S1(=O)=O` [PXM, piroxicam], the “Time after which drug started to precipitate” value in data set [1] (SSR = 6, buffer alone, HPLC) was > 5 h. Further, the “SSR reached at 24 h” value in data set [1] (SSR = 6 induced, buffer alone, HPLC) is ~ 4. Also, in data set [1] (SSR = 6 induced, presence of mucin (regardless of concentration) and PIM, HPLC), the “SSR maintained throughout the monitoring period” value is recorded as 6. For the same molecule, in data set [1], the “Duration intended degree of drug supersaturation was maintained” value was “at least 5 min” and the “Time to drug precipitation” value is recorded as ≤ 5 h. Also, in data set [3], the “Equilibrium solubility, effect of addition of mucin” value is reported as “appeared to increase” and the “Equilibrium solubility, effect of addition of 8 %w/v PIM” value was “significantly increased”.
